# Assay results published in patent US8084644B2, “Iminopropene compound and use thereof” (Sumitomo Chemical Company, Limited, priority 2005, dated 2011).
# Tested on: not given
# Test: not given
# Details: not given
row,melting point [°C],Compound
1,77 to 81,"C(=CC(=Nc1ccccc1)OCc1ccccc1)Sc1ccccc1 [(60), Benzyl N-phenyl-3-(phenylthio)acrylimidate]"
2,110 to 116,"O=S(=O)(C=CC(=Nc1ccccc1)Oc1ccccc1)c1ccccc1 [(99), Phenyl N-phenyl-3-(phenylsulfonyl)acrylimidate]"
3,175 to 178,"Cc1cc(C)nc(SC=CC(=Nc2ccccc2)Oc2ccccc2)n1 [(124), Phenyl 3-(4,6-dimethyl-2-pyrimidinylthio)-N-phenylacrylimidate]"
4,130 to 132,"CN(C=CC(=Nc1ccccc1)Oc1ccccc1)c1ccccc1 [(132), Phenyl 3-(N′-methyl-N′-phenylamino)-N-phenylacrylimidate]"
5,127 to 128,"C(=CN1CCCCC1)C(=Nc1ccccc1)Oc1ccccc1 [(134), Phenyl N-phenyl-3-(piperidino)acrylimidate]"
6,134 to 136,"CC(C)(C)SC=CC(=Nc1ccccc1)Oc1ccccc1 [(140), Phenyl 3-(1,1-dimethylethylthio)-N-phenylacrylimidate]"

# Tested on: Spodoptela litura
# Test: Test Example 13: cabbage test on common cutworm
# Assay type: in vivo
# Details: 50 ppm, fourth-instar, after four days
# Protocol: 0.1 ml of the mixture of xylene and N,N-dimethylformamide (xylene:N,N-dimethylformamide=1:1) and 0.04 ml of the mixture of xylene and Sorpol 3005X (TOHO Chemical Industry Co. LTD) (xylene:Sorpol 3005X=1:9) were added to 16 mg of the each test compound. The mixture was diluted with water as that the active ingredient concentration came to prescribed concentration. Furthermore, spreader (Dain: Takeda Pharmaceutical Co. […] The test solution was applied to a cabbage (Brassicae oleracea) in a fifth-leaf stage at a rate 20 ml per pot. After air-drying, ten fourth-instar worm of common cutworm (Spodoptela litura) was placed onto the cabbage, and the cabbage was covered with a cup having holes. After four days, the number of dead worm was examined.
row,Compound,index number (mortality)
1,"Cc1ccc(SC=CC(=Nc2ccccc2)Sc2ccccc2)cc1 [(130), Phenyl 3-(4-methylphenylthio)-N-(phenyl)thioacrylimidate]",3 (mortality 80 to 99%)

# Tested on: Haemaphysalis longicornis
# Test: Test Example 11: filter paper bag contact test on ticks
# Assay type: in vivo
# Details: 48 h, 0.5 mg test compound on 5 cm×10 cm filter paper, after 2 days
# Protocol: 0.5 mg of the test compound was dissolved to […]. Onto one side of filter paper having 5 cm×10 cm, the solution was applied uniformly and then air-dried. Thereafter, the filter paper was folded in half and fixed by paper clips at the side to form bag like shape. Ten Haemaphysalis longicornis was put into the bag, and then the bag was closed with a paper clip. After 2 days, the number of dead insects was examined.
row,Compound,mortality at 0.5 mg/filter paper [%]
1,"Cc1ccc(SC=CC(=Nc2ccccc2)Sc2ccccc2)cc1 [(130), Phenyl 3-(4-methylphenylthio)-N-(phenyl)thioacrylimidate]",100
2,"Cc1ccc(N=C(C=CSc2cccc(F)c2)SCC(C)C)cc1 [(429), Isobutyl 3-(3-fluorophenylthio)-N-(4-methylphenyl)thioacrylimidate]",100
3,"Cc1ccc(N=C(C=CSc2ccc(F)cc2)SCC(C)C)cc1 [(431), Isobutyl 3-(4-fluorophenylthio)-N-(4-methylphenyl)thioacrylimidate]",100
4,"Cc1ccc(N=C(C=CSc2ccccc2Cl)SCC(C)C)cc1 [(433), Isobutyl 3-(2-chlorophenylthio)-N-(4-methylphenyl)thioacrylimidate]",100
5,"Cc1ccc(N=C(C=CSc2cccc(Cl)c2)SCC(C)C)cc1 [(434), Isobutyl 3-(3-chlorophenylthio)-N-(4-methylphenyl)thioacrylimidate]",100
6,"Cc1ccc(N=C(C=CSc2ccc(Cl)cc2)SCC(C)C)cc1 [(435), Isobutyl 3-(4-chlorophenylthio)-N-(4-methylphenyl)thioacrylimidate]",100
7,"Cc1ccc(N=C(C=CSc2ccccc2C)SCC(C)C)cc1 [(441), Isobutyl N-(4-methylphenyl)-3-(2-methylphenylthio)thioacrylimidate]",100
8,"Cc1ccc(N=C(C=CSc2ccc(C)cc2)SCC(C)C)cc1 [(443), Isobutyl N-(4-methylphenyl)-3-(4-methylphenylthio)thioacrylimidate]",100
9,"COc1cccc(SC=CC(=Nc2ccc(C)cc2)SCC(C)C)c1 [(446), Isobutyl 3-(3-methoxyphenylthio)-N-(4-methylphenyl)thioacrylimidate]",100
10,"COc1ccc(SC=CC(=Nc2ccc(C)cc2)SCC(C)C)cc1 [(447), Isobutyl 3-(4-methoxyphenylthio)-N-(4-methylphenyl)thioacrylimidate]",100
11,"Fc1ccc(SC=CC(=Nc2ccccc2)SC2CCCCC2)cc1 [(469), Cyclohexyl 3-(4-fluorophenylthio)-N-(phenyl)thioacrylimidate]",100
12,"Cc1ccc(N=C(C=CSc2ccccc2)SC2CCCCC2)cc1 [(470), Cyclohexyl N-(4-methylphenyl)-3-(phenylthio)thioacrylimidate]",100
13,"Cc1ccc(N=C(C=CSc2ccc(F)cc2)SC2CCCCC2)cc1 [(471), Cyclohexyl 3-(4-fluorophenylthio)-N-(4-methylphenyl)thioacrylimidate]",100
14,"Cc1ccc(N=C(C=CSc2ccc(Cl)cc2)SC2CCCCC2)cc1 [(472), Cyclohexyl 3-(4-chlorophenylthio)-N-(4-methylphenyl)thioacrylimidate]",100
15,"Cc1ccc(N=C(C=CSc2ccc(C)cc2)SC2CCCCC2)cc1 [(473), Cyclohexyl N-(4-methylphenyl)-3-(4-methylphenylthio)thioacrylimidate]",100
16,"CCCCSC(C=CSc1ccc(F)cc1)=Nc1ccc(C)cc1 [(474), Butyl 3-(4-fluorophenylthio)-N-(4-methylphenyl)thioacrylimidate]",100
17,"CCCCSC(C=CSc1ccc(Cl)cc1)=Nc1ccc(C)cc1 [(475), Butyl 3-(4-chlorophenylthio)-N-(4-methylphenyl)thioacrylimidate]",100
18,"Cc1ccc(N=C(C=CSc2ccccc2)Sc2cccs2)cc1 [(480), 2-Thienyl N-(4-methylphenyl)-3-(phenylthio)thioacrylimidate]",100
19,"CCC(C)OC(C=CSc1ccc(F)cc1)=Nc1ccc(C)cc1 (centres unmarked) [(513), 1-Methylpropyl 3-(4-fluorophenylthio)-N-(4-methylphenyl)acrylimidate]",100
